{"source": "paper PMC6823368", "about": "(Scientific Reports, 2019)", "key": {"[1]": {"conditions": "n=12; for Cmax / MRT0-∞: mean (SD); for Tmax: median (range)", "procedure": "The volunteers were hospitalized on day-1 (the day before the study), 10 hours of fasting was required before administration[27].\nThe chromatographic separation was carried out on an LC system (Shimadzu LC-20AD, Tokyo, Japan) using water and acetonitrile, and AB QTRAP 4000 system (AB Sciex, Foster City, CA, USA) in positive electrospray ion mode was hired for quantification[29]–[31]. […] Liquid-liquid extraction with 3 mL dichloromethane: diethyl ether: (2:3, v/v) was employed for 200 μL human plasma.\n(§1) The measurement outcomes contained area under the profile (AUC0-t), the terminal half-life (t1/2), maximum plasma concentration observed (Cmax), time of maximum concentration (Tmax). AUC from 0 to infinity (AUC0-∞). Parameters of pharmacodynamic were estimated from the INR data on each period. PT (INR) was measured with the use of prothrombin complex assay (STA-R, SPA 50 Reagent, Diagnostica stago)[34]. Maximum INR (INRmax) and baseline INR (INRbaseline) were determined by PTtest divide PTnormal.\n(§2) Log-transformation of pharmacodynamic parameters INRmax and INR(AUC) were applied."}, "prothrombin time (INR)": {"test_system": "prothrombin time (INR)", "conditions": "area under INR-time profile 0-[…]; 5 mg warfarin; n=12", "procedure": "Current study is phase I clinical trial, which was designed as open-labeled and fixed-sequence, and all the information/data were collected from a single center. […] The volunteers were hospitalized on day-1 (the day before the study), 10 hours of fasting was required before administration[27]. Subjects should avoid any activities involved in risks of haemorrhage[9].\nas §1, §2"}, "[2]": {"assay": "Safety evaluations (adverse events, clinical and laboratory examinations)", "procedure": "The safety assessments were conducted on account of clinical examinations, such as evaluation of general subject appearance, vital signs and routine hematology and biochemistry assays[35], together with adverse events evaluation (AEs), conducted at screening, pretreatment, post-treatment (day 7) and end of trial (day 16). […] AEs were defined as mild, moderate or severe[37]. Determination of causal relationship between AEs and study drugs followed the criterions announced by the World Health Organization[27]."}, "[3]": {"test_system": "vitamin K-dependent coagulation factors", "conditions": "cited from earlier work"}, "2D6": {"test_system": "2D6", "conditions": "hepatic isoenzyme; cited from earlier work"}, "COX-1": {"test_system": "COX-1", "conditions": "read-out: 50% inhibitory concentration (IC50) of COX-1; cited from earlier work"}, "3A4": {"test_system": "3A4", "conditions": "hepatic isoenzyme; cited from earlier work"}, "CYP2C9": {"test_system": "CYP2C9", "conditions": "hepatic isoenzyme; cited from earlier work"}, "[4]": {"set-up": "method as in earlier work", "conditions": "cited from earlier work"}, "COX-2": {"test_system": "COX-2", "conditions": "cited from earlier work"}, "plasma protein": {"test_system": "plasma protein", "conditions": "cited from earlier work"}, "[5]": {"conditions": "warfarin 5 mg with steady-state imrecoxib"}}, "note": "Read-outs that look alike come from different tables or passages of the source.", "data": [{"molecule": "CC(=O)C[C@H](c1ccccc1)c1c(O)c2ccccc2oc1=O", "note": "[R-warfarin]", "values": [{"measurement": "Cmax", "setting": "[1]; warfarin 5 mg alone", "result": "285.25 (39.66) μg/L"}, {"measurement": "MRT0-∞", "setting": "[1]; warfarin 5 mg alone", "result": "88.41 (19.96) hr"}, {"measurement": "Tmax", "setting": "[1]; warfarin 5 mg alone", "result": "1.0 (0.5–3.0) hr"}, {"measurement": "Cmax", "setting": "[1]; [5]", "result": "300.75 (36.61) μg/L"}, {"measurement": "MRT0-∞", "setting": "[1]; [5]", "result": "83.44 (13.39) hr"}, {"measurement": "Tmax", "setting": "[1]; [5]", "result": "0.8 (0.5–2.0) hr"}]}, {"molecule": "CC(=O)CC(c1ccccc1)c1c(O)c2ccccc2oc1=O", "note": "(stereo not shown) [Warfarin]", "values": [{"measurement": "INR (AUC)", "setting": "prothrombin time (INR)", "result": 143.47}, {"measurement": "safety and tolerance", "setting": "[2]; healthy volunteers, across the trial", "result": "safey and good tolerance"}, {"measurement": "transient elevated direct bilirubin", "setting": "[2]; one subject, period 1, day 7, upper limit of normal 6.8 μmol/L, grade 1 AE, considered unrelated to study drugs", "result": 9.6, "unit": "µmol/L"}]}, {"molecule": "CC(=O)C[C@@H](c1ccccc1)c1c(O)c2ccccc2oc1=O", "note": "[S-warfarin]", "values": [{"measurement": "share of anticoagulant activity of warfarin", "setting": "[3]", "result": 85, "unit": "%"}, {"measurement": "Cmax", "setting": "[1]; warfarin 5 mg alone", "result": "294.92 (50.35) μg/L"}, {"measurement": "MRT0-∞", "setting": "[1]; warfarin 5 mg alone", "result": "66.44 (15.76) hr"}, {"measurement": "Tmax", "setting": "[1]; warfarin 5 mg alone", "result": "1.0 (0.5–3.0) hr"}, {"measurement": "Cmax", "setting": "[1]; [5]", "result": "300.42 (34.01) μg/L"}, {"measurement": "MRT0-∞", "setting": "[1]; [5]", "result": "63.35 (12.78) hr"}, {"measurement": "Tmax", "setting": "[1]; [5]", "result": "0.8 (0.5–2.0) hr"}]}, {"molecule": "CCCN1CC(c2ccc(S(C)(=O)=O)cc2)=C(c2ccc(C)cc2)C1=O", "note": "[Imrecoxib, 4-(4-methylsulfonyl-phenyl)-1-propyl-3-(p-tolyl)-1H-pyrrol-2(5H)-one]", "values": [{"measurement": "rate of metabolism by CYP2D6", "setting": "2D6", "result": 21.1, "unit": "%"}, {"measurement": "IC50", "setting": "COX-1", "result": "115 ± 28", "unit": "nM"}, {"measurement": "rate of metabolism by CYP3A4", "setting": "3A4", "result": 16.4, "unit": "%"}, {"measurement": "rate of metabolism by CYP2C9", "setting": "CYP2C9", "result": 62.5, "unit": "%"}, {"measurement": "adverse event", "setting": "[2]; one subject, period 2, Day 8 after first dose (200 mg), about 1.5 hours, resolved without treatment, possibly related", "result": "mild abdominal/upper abdominal discomfort"}, {"measurement": "accumulation in plasma", "setting": "[4]; 200 mg bid for 11 consecutive days", "result": "No accumulated effects"}, {"measurement": "t1/2", "setting": "[4]", "result": 20, "unit": "h"}, {"measurement": "Tmax", "setting": "[4]; following oral consumption", "result": 2, "unit": "h"}, {"measurement": "single-dose pharmacokinetics dose linearity", "setting": "[4]; over the 30 to 200 mg dose range", "result": "linear"}, {"measurement": "selective index (IC50, COX-1/COX2)", "setting": "COX-2; between that of meloxicam and celecoxib", "result": 6.39}, {"measurement": "IC50", "setting": "COX-2; read-out: 50% inhibitory concentration (IC50) of COX-2", "result": "18 ± 4", "unit": "nM"}, {"measurement": "protein bound in plasma", "setting": "plasma protein", "result": 96, "unit": "%"}]}]}
